Legend:
Cytochrome P450 2C19 = Cytochrome P450 2C19 (Homo sapiens, UniProt P33261); note: in other assays of this panel Not Active means under 50% inhibition at 10 µM
Adenosine receptor A2a = Adenosine receptor A2a (Homo sapiens, UniProt P29274); experiment: DRUGMATRIX: Adenosine A2A radioligand binding (ligand: […]); type: cell membranes, HEK293, Membrane; conditions: hek293; Not Active = under 50% inhibition at 10 µM
[1] = DRUGMATRIX: Serotonin (5-Hydroxytryptamine) 5-HT3 radioligand binding (ligand: [3H] GR-65630); type: cell membranes, Membrane; conditions: hek293; Not Active = under 50% inhibition at 10 µM
[2] = biological target: Epidermal growth factor receptor (Homo sapiens, UniProt P00533); experiment: DRUGMATRIX: Protein Tyrosine Kinase, EGF Receptor enzyme inhibition (substrate: Poly(Glu:Tyr)); type: cell-based, Insect cells; conditions: insect cells; Not Active = under 50% inhibition at 10 µM
[3] = biological target: T1, Polyunsaturated fatty acid lipoxygenase ALOX15 (Oryctolagus cuniculus, UniProt P12530); experiment: biochemical; type: tissue-based, Reticulocytes; conditions: reticulocytes;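 note: inhibition of 15-lipoxygenase enzyme activity measured with linoleic acid as the substrate; in other assays of this panel Not Active means under 50% inhibition at 10 µM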
T1 sequence (P12530 whole entry): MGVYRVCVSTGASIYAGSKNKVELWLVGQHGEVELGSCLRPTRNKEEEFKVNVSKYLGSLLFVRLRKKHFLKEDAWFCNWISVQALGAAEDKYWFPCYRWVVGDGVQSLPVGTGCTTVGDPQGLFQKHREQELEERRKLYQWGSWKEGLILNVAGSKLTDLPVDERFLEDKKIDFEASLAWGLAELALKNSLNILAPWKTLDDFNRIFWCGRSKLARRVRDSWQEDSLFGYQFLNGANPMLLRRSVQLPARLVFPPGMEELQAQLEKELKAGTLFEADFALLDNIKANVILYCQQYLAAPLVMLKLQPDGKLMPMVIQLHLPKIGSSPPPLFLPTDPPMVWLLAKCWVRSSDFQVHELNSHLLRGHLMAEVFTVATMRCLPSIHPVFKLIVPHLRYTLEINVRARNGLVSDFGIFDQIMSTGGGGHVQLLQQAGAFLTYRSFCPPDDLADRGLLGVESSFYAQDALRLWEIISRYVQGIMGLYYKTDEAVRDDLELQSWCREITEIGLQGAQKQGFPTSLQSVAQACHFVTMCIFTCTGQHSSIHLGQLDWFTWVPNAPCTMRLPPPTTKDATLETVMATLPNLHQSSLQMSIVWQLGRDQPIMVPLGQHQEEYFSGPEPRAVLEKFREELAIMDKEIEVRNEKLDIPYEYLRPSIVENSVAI

Androgen receptor = biological target: T2, Androgen receptor (Rattus norvegicus, UniProt P15207); note: in other assays of this panel Not Active means under 50% inhibition at 10 µM
T2 sequence (P15207 whole entry): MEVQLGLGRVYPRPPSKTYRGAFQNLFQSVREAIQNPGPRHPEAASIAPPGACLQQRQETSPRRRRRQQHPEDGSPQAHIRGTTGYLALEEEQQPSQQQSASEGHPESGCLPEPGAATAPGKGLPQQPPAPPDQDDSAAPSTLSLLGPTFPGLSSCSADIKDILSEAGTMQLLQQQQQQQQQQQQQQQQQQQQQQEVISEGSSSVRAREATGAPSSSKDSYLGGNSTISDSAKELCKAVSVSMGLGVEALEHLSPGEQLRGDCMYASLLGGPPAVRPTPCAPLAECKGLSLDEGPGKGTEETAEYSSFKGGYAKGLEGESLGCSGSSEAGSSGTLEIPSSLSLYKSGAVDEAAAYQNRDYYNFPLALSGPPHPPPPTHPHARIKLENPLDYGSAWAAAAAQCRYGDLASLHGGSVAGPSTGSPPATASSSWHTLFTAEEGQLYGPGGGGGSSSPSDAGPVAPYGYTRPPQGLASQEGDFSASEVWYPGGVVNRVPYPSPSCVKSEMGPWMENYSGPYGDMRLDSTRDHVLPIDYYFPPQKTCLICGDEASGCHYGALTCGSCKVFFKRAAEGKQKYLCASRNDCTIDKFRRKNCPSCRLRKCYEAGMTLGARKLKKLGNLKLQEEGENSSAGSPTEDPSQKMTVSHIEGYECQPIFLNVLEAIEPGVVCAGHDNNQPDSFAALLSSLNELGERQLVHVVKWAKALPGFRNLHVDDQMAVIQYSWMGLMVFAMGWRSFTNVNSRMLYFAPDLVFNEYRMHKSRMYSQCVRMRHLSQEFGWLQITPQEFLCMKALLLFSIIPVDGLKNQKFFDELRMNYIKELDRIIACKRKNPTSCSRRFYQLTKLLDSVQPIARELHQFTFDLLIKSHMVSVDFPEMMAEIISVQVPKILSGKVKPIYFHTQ

Interstitial collagenase = biological target: T3, Interstitial collagenase (Homo sapiens, UniProt P03956); experiment: biochemical; type: tissue-based, Rheumatoid synovial fibroblasts;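 note: MMP-1 enzyme inhibition assay using a peptide substrate; in other assays of this panel Not Active means under 50% inhibition at 10 µM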
T3 sequence (P03956 whole entry): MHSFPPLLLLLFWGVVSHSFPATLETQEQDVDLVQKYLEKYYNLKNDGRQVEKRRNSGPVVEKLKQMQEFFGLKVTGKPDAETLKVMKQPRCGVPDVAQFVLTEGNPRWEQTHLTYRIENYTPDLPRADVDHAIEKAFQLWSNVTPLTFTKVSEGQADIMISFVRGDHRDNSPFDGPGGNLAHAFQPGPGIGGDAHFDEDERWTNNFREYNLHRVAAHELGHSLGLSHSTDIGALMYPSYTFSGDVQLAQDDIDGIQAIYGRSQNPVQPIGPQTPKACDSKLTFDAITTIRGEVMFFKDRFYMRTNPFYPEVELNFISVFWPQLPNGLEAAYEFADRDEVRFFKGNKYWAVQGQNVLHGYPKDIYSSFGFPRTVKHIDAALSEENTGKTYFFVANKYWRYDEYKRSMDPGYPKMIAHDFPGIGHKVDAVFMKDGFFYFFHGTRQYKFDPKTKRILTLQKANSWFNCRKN

Adenosine receptor A2a, sequence (P29274 whole entry): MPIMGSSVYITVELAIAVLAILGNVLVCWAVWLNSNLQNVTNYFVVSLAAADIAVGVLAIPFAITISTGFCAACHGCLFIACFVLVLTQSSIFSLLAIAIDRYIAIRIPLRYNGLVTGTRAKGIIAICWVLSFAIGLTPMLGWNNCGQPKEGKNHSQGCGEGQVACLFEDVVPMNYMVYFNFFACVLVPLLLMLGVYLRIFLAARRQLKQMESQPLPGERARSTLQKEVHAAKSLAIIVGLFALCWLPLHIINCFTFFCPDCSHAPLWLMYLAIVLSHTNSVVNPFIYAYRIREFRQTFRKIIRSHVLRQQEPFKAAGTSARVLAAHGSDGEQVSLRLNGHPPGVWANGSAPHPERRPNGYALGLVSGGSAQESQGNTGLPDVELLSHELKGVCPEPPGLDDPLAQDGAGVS
Epidermal growth factor receptor, sequence (P00533 whole entry): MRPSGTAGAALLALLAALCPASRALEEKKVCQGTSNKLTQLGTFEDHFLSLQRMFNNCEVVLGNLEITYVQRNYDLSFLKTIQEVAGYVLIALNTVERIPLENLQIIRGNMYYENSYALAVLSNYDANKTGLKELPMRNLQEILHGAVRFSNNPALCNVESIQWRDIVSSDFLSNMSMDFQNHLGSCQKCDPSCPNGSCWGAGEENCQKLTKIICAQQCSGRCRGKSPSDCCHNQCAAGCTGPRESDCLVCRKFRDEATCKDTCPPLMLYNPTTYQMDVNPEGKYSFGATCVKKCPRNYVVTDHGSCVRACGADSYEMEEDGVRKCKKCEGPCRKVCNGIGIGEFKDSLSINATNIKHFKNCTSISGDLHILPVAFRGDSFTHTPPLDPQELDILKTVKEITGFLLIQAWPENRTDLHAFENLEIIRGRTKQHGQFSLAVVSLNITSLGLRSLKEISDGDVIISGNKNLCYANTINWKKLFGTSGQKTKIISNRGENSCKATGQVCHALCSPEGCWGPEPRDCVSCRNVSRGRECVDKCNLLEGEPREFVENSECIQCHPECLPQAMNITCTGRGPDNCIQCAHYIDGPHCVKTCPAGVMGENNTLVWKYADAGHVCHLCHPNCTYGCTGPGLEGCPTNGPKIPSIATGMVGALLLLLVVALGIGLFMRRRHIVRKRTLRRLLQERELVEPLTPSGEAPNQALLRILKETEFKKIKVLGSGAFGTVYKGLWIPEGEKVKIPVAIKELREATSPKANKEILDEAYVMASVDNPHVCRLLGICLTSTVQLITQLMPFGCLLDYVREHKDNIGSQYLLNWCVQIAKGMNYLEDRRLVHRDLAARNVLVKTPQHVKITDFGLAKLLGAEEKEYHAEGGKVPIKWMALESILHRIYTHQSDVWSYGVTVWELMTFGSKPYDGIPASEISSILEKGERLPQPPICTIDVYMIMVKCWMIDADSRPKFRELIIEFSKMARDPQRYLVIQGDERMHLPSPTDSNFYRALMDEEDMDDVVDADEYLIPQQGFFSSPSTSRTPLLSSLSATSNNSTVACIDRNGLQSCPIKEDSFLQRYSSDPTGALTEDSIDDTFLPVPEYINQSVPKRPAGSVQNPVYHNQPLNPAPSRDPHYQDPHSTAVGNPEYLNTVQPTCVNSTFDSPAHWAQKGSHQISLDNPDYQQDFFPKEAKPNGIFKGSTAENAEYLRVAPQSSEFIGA
Cytochrome P450 2C19, sequence (P33261 whole entry): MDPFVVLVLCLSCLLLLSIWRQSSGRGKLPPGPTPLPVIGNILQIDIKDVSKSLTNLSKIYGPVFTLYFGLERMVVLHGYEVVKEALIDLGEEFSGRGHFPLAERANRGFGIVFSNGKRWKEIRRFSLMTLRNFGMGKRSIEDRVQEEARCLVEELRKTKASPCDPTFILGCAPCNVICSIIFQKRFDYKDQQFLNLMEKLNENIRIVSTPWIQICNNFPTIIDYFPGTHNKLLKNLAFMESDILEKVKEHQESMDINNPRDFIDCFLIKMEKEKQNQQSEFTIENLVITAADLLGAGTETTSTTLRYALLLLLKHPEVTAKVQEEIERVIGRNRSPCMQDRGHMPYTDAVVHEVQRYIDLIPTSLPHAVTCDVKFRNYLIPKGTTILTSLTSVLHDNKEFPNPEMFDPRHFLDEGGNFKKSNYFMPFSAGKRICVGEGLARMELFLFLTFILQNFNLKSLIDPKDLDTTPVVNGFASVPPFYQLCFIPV

Row | Compound | IC50 (Cytochrome P450 2C19) [nM] | IC50 (Adenosine receptor A2a) | IC50 [1] | Ki [1] | IC50 [2] | IC50 [3] | IC50 (Androgen receptor) | IC50 (Interstitial collagenase)
1 | COC1=C(OC)C(=O)C(CCCCCCCCCCO)=C(C)C1=O [IDEBENONE] | 800 | Not Active | Not Active | Not Active | Not Active | Not Active | Not Active | Not Active
2 | O=C(c1ccccc1C(F)(F)F)N1CCC(Cc2ccccc2)CC1 | 400 | Not Active | Not Active | Not Active | Not Active | Not Active | Not Active | Not Active

Reference: ChEMBL document CHEMBL1909046, “DrugMatrix in vitro pharmacology data”
